Measurements: patent US20250295686A1, “COMBINATION DECITABINE AND MPS1 INHIBITOR THERAPY TO PRIME CANCER IMMUNOGENICITY” (Dana-Farber Cancer Institute, Inc., priority 2021, published 2025)
“Also recorded” adds a separate entry of the source.

Assays:
Format in all cases: cell-based, human
[1] = tested on: H1944 cells; assay: Quantification of micronucleus formation; conditions: 48-hour pulse treatment schedule, 200 nM CFI-402257, 5 nM docetaxel, 200 nM barasertib
Text: MPS1 is a regulator of the spindle assembly checkpoint (SAC), and MPS1 inhibition in other contexts is known to facilitate massive chromosome missegregation (London and Biggins, 2014). This effect could therefore be related to the formation of micronuclei, known activators of cGAS-STING signaling generated by mitotic slippage and subsequent progression into G1 (Mackenzie et al., 2017). […] Furthermore, induction of CXCL10 mRNA expression in H1944 cells directly correlated with the number of micronuclei induced by these DNA-damaging agents, with CFI-402257 representing the clear outlier (FIG. 5C). Additionally, Lamin B2 over-expression, which is sufficient to inhibit micronuclei disruption (Hatch et al., 2013) and could protect against cGAS recognition, attenuated CXCL10 secretion induced by pulse treatment with MPS1 inhibitor (FIGS. 6A and 6B).
Cells were plated onto chamber slides (CellTreat, Cat #229168), and treated with DNA-damaging agents for 48 hours. […] Z-stack images were subjected to maximum projection followed by quantitative analysis using CellSens. All samples were imaged and analyzed with the same setting throughout the experiments. The number of micronuclei were counted from three different fields for each sample. […] Slides were imaged with Zeiss LSM 880 confocal microscopy, and colocalization was determined using ImageJ.

[2] = tested on: H1944 cells; assay: Cell viability assay to determine an IC50 (CellTiter-Glo); conditions: Homo sapiens, NCI-H1944, 72 hours with drug
Text: (§1) Due to their particular hypersensitivity, H1944 cells were utilized as a model system in which to conduct an unbiased screen of cytotoxic chemotherapies or targeted DNA-damaging agents for their ability to upregulate endogenous 2′3′-cGAMP production following pulse treatment, including cGAS-deficient H2122 cells as a counter-screen (FIGS. 3A and 3B). […] Additionally, hydroxyurea or nocodazole were included as controls to induce S-phase or M-phase cell cycle arrest. The IC50 was identified for each compound for cell viability in H1944 cells, and this concentration was utilized for the screen (FIG. 4A and Table 1). It was shown that each agent induced cellular cytotoxicity and/or DNA-damage response at this concentration, as measured by the induction of propidium iodide positive cells, cleaved PARP fragments, or histone TH2A.X expression (FIGS. 4B and 4C).
3000 cells were plated onto 96-well plates, and then cultured for 72 hours in the presence of each DNA-damaging agent at the indicated concentration. Values of CellTiter-Glo Luminescent Cell Viability assay (Promega) […] were normalized to vehicle treated cells. Plates were read on a Tecan Infinite M200 Pro plate reader and analysis was performed using Prism7 (GraphPad Software). All conditions were tested in triplicate.

[3] = tested on: STING pathway; assay: Screening of DNA-damaging agents: CXCL10 / IFN-β ELISA in conditioned medium of H1944 cells after pulse treatment
Text: as §1
(§2) Human IFN-β (Thermo Fisher Scientific, Cat. #414101), human CXCL10 (R&D systems, Cat. #DIP100), mouse CXCL10 (R&D systems, Cat. #DY466), and 2′3′-cGAMP (Cayman Chemical, Cat. #501700) ELISAs were performed according to the manufacturer's instructions. Conditioned media from each cell lines was collected after 24 hour culture. Values represent the average of four replicates from at least two independent experiments (biological replicates).

[4] = tested on: THP1 cells; assay: STING pathway activation (CXCL10 ELISA, immunoblot) in PMA-differentiated macrophage-like THP1 cells; conditions: 200 nM CFI-402257 screening schedule or 10 μM ADU-S100 24 hours
Method: Based on these observations, MPS1 inhibition might also induce micronuclei more efficiently in proliferating cancer cells as compared with non-genomically altered, non-proliferative cells in the TME such as immune cells and endothelial cells.
as §2
Cells were lysed in RIPA buffer containing 1× protease inhibitors (Roche, Cat #11-836-145-001) and phosphatase inhibitors (50 mmol/L NaF and 100 mmol/L Na3VO4). […] Imaging of blots and quantitation of bands was performed using the LICOR Odyssey system, or LAS-3000 (Fujifilm).

[5] = tested on: KL NSCLC cell lines; assay: CXCL10 ELISA after exogenous CDN exposure, KL NSCLC cell lines; conditions: 24 hours
Text: Treatment with 2′3′-cGAMP or ADU-S100 was utilized to examine the sensitivity of KP or KL NSCLC cell lines to exogenous CDN exposure. […] KL cell response to extracellular CDNs was still modest as compared with endothelial cells (HUVEC) or monocytic THP-1 cells, which also have different membrane permeabilities (FIG. 2C) (Cordova et al., 2021; Luteijn et al., 2019; Ritchie et al., 2019).
as §2

| IC50 [2] | SMILES | micronuclei formation [1] | CXCL10 secretion in H1944 cells following 48-hour pulse treatment ([3]; H1944 cells, IC50-based screening concentration, ELISA of conditioned medium) | CXCL10 induction at lower concentrations ([3]; H1944 cells, concentrations below the IC50, pulse treatment) | STING pathway activation in macrophage-like THP1 cells [4] | STING signaling activation in H1944 cells ([3]; 200 nM CFI-402257 screening schedule vs 10 μM ADU-S100 24 hours) | CXCL10 secretion, STING^Absent KL cell lines ([5]; A549, H23, A427, up to 100 μM) | CXCL10 secretion, STING^Low KL cells ([5]; H1944, H2122, H647, H1355, 3.125-100 μM) |
| --- | --- | --- | --- | --- | --- | --- | --- | --- |
| 3.97 nM | CC(=O)O[C@@]12CO[C@@H]1C[C@H](O)[C@@]1(C)C(=O)[C@H](O)C3=C(C)[C@@H](OC(=O)[C@H](O)[C@@H](NC(=O)OC(C)(C)C)c4ccccc4)C[C@@](O)([C@@H](OC(=O)c4ccccc4)[C@H]21)C3(C)C [docetaxel] | generated micronuclei | induce significant CXCL10 secretion; also recorded: partially activated CXCL10 production | not upregulated |  |  |  |  |
|  | Nc1ncnc2c1ncn2[C@@H]1O[C@@H]2COP(=O)([S-])O[C@@H]3[C@H](O)[C@@H](COP([O-])(=S)O[C@H]2[C@H]1O)O[C@H]3n1cnc2c(N)ncnc21.[Na+].[Na+] (some centres unmarked) [ADU-S100] |  |  |  | high sensitivity | negligible impact | failed to respond | dose-dependent manner |
